Results on twelve compounds are retold here after patent publication US20070149535A1, “Protein kinase inhibitors” (ONCALIS AG, priority 2004, published 2007).

Holding throughout (test): Yeast growth assay, specificity profiling
Format in all cases: cell-based
Holding throughout (set-up): key: “−” indicates no growth restoration i.e. no activity against the particular kinase; “+”, “++”, and “+++” indicate activity detected by restoration of growth, classified into three categories of potency; “+”, “++”, and “+++” indicate activity detected by restoration of growth, classified into three categories of potency; “+”, “++”, and “+++” indicate activity detected by restoration of growth, classified into three categories of potency
Common to all, as to conditions: 7 concentrations between 0.2 and 100 μM

One experiment addresses T1, EphB2 (Homo sapiens, UniProt P29323).
T1 construct: expressed in transfected cells; host or cells: yeast
T1 sequence (P29323 19-1055): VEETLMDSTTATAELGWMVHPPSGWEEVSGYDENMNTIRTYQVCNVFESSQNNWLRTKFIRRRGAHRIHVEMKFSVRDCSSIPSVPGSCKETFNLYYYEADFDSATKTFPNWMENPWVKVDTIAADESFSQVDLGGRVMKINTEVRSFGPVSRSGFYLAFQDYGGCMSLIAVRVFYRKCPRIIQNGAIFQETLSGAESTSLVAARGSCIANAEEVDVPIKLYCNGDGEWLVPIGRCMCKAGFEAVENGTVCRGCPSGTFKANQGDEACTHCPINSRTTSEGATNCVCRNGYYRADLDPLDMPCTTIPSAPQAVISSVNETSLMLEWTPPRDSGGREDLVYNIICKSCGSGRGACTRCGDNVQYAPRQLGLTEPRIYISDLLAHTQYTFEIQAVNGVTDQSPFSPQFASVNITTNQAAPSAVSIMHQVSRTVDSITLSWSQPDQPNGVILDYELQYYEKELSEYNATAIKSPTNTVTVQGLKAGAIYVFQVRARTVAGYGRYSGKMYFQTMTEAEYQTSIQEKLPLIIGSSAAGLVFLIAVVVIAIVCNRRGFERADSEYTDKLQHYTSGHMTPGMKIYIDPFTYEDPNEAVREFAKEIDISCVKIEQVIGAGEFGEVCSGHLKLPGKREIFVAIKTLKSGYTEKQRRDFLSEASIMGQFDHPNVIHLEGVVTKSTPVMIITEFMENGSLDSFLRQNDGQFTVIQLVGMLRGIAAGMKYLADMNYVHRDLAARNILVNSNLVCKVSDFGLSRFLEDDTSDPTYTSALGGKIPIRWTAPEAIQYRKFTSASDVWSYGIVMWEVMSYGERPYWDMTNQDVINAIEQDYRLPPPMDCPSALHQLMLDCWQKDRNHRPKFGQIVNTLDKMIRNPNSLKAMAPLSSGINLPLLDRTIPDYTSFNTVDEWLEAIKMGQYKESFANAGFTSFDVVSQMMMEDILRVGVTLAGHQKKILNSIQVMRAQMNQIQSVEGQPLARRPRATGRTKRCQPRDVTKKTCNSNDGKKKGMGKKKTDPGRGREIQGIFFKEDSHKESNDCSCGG
On the procedure:
(§1) Specificity Profiling: Yeast Growth Assay
(§2) The yeast growth assay was performed as described in “Method for the identification and/or validation of receptor tyrosine kinase inhibitors” PCT/CH03/00694 (2004/10/24), section “Modes for Carrying out the Invention, Experiment 1 and Experiment 2.
(§3) Briefly, yeast cells carrying plasmids with the RTK of interest were grown in glucose containing medium (repressing expression). The cultures were diluted into galactose containing medium, which induces the expression of the kinase. Expression of the kinase inhibits growth of the yeast cells, which allows for positive selection of kinase inhibitors restoring growth of cells. Compounds were titrated at 7 concentrations between 0.2 and 100 μM.
(§4) Specificity profiling of compounds, using the yeast growth assay method described above. “−” indicates no growth restoration i.e. no activity against the particular kinase, “+”, “++”, and “+++” indicate activity detected by restoration of growth, classified into three categories of potency according to the maximal level of growth restoration reached and the concentration at which the maximal growth restoration is reached.

The target of another experiment is T2, FGFR-1 (Homo sapiens, UniProt P11362).
T2 construct: expressed in transfected cells; host or cells: yeast
T2 sequence (P11362 22-822): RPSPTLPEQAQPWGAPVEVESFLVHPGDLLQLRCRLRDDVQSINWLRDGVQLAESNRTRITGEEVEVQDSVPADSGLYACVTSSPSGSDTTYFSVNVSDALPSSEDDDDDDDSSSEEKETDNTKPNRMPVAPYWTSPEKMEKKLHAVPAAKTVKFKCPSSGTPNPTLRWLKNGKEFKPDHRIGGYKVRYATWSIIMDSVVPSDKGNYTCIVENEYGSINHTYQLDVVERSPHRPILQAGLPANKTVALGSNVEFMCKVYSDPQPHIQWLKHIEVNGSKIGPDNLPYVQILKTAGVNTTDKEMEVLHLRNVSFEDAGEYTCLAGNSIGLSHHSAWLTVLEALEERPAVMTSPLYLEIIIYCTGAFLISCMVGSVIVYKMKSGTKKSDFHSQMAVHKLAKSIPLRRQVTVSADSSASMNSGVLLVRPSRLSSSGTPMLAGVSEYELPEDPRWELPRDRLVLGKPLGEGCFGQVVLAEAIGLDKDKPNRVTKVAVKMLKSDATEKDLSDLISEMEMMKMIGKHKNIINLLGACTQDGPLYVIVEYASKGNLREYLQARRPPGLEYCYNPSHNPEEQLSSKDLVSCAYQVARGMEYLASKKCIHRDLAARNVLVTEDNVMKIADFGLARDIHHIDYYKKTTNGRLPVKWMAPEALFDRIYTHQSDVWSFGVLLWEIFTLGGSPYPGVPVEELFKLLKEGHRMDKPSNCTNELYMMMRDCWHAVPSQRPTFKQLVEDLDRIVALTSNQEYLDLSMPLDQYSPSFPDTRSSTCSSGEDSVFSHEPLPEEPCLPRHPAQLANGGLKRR
The method, then: as §1, §2, §3, §4

Another experiment addresses T3, FGFR-4 (Homo sapiens, UniProt P22455).
T3 construct: expressed in transfected cells; host or cells: yeast
The method, then:
as §1, §2, §3, §4

The target of a further experiment is T4, InsR (Homo sapiens, UniProt P06213).
T4 construct: expressed in transfected cells; host or cells: yeast
T4 sequence (P06213 28-1382): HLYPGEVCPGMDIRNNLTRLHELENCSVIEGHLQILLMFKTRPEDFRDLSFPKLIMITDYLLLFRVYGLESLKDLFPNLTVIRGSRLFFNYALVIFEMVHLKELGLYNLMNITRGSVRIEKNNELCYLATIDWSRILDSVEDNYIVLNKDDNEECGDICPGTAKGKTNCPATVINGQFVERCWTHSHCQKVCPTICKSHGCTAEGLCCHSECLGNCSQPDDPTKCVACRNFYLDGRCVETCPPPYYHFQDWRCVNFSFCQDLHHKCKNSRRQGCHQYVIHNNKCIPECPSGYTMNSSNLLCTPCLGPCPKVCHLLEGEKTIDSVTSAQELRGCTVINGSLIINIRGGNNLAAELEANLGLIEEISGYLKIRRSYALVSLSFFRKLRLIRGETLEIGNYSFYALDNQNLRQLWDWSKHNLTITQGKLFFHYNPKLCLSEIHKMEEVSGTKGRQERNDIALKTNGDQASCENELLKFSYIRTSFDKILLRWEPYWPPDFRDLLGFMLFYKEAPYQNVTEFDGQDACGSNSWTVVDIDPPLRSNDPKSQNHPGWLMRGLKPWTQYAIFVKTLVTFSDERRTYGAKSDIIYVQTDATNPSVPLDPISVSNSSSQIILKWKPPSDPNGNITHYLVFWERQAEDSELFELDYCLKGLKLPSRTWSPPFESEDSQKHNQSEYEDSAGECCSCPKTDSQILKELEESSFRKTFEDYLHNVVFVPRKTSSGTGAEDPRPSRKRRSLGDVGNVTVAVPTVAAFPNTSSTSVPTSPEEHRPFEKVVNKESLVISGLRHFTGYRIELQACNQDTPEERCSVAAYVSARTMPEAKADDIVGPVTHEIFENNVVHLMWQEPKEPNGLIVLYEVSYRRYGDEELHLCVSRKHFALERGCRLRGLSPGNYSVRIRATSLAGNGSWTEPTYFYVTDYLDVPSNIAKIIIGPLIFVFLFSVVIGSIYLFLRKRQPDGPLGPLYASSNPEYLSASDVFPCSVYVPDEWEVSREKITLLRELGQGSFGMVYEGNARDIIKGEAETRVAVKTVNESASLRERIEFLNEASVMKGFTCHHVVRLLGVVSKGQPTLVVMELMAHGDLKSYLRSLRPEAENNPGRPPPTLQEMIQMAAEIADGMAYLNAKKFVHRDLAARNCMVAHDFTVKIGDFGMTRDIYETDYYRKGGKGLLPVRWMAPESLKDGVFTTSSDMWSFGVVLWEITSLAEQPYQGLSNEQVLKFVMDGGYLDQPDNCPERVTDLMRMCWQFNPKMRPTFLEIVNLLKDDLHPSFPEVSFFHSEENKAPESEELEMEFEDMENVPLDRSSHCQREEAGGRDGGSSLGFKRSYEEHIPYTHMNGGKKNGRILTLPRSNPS
On the procedure: as §1, §2, §3, §4

The next experiment deals with T5, KIT (Homo sapiens, UniProt P10721).
T5 construct: expressed in transfected cells; host or cells: yeast
T5 sequence (P10721 26-976): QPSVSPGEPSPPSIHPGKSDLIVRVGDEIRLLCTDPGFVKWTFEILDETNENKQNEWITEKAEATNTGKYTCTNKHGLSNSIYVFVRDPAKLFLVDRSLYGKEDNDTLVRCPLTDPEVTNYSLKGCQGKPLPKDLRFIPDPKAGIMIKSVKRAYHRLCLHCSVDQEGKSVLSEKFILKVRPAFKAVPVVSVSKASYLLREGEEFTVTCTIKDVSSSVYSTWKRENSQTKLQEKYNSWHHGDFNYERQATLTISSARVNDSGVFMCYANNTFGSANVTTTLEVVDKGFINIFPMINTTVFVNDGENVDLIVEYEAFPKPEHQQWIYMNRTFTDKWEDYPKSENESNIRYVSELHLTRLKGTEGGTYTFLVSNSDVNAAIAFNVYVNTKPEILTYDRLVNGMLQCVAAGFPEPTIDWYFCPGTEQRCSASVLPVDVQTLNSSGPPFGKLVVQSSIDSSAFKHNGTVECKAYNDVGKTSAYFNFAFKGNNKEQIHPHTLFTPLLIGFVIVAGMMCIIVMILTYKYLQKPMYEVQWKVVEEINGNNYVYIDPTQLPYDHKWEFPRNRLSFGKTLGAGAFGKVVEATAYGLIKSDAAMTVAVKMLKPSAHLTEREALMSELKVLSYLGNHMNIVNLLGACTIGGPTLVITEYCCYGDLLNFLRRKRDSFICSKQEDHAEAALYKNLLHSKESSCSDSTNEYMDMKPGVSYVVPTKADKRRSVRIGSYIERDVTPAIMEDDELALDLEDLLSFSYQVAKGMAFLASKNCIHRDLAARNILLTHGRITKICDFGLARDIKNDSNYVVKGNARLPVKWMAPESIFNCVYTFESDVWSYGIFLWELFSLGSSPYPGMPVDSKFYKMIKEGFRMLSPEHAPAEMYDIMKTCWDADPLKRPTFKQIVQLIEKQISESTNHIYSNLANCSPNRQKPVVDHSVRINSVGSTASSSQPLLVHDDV
On the procedure: as §1, §2, §3, §4

Another experiment deals with T6, RET (Homo sapiens, UniProt P07949).
T6 construct: expressed in transfected cells; host or cells: yeast
T6 sequence (P07949 29-1114): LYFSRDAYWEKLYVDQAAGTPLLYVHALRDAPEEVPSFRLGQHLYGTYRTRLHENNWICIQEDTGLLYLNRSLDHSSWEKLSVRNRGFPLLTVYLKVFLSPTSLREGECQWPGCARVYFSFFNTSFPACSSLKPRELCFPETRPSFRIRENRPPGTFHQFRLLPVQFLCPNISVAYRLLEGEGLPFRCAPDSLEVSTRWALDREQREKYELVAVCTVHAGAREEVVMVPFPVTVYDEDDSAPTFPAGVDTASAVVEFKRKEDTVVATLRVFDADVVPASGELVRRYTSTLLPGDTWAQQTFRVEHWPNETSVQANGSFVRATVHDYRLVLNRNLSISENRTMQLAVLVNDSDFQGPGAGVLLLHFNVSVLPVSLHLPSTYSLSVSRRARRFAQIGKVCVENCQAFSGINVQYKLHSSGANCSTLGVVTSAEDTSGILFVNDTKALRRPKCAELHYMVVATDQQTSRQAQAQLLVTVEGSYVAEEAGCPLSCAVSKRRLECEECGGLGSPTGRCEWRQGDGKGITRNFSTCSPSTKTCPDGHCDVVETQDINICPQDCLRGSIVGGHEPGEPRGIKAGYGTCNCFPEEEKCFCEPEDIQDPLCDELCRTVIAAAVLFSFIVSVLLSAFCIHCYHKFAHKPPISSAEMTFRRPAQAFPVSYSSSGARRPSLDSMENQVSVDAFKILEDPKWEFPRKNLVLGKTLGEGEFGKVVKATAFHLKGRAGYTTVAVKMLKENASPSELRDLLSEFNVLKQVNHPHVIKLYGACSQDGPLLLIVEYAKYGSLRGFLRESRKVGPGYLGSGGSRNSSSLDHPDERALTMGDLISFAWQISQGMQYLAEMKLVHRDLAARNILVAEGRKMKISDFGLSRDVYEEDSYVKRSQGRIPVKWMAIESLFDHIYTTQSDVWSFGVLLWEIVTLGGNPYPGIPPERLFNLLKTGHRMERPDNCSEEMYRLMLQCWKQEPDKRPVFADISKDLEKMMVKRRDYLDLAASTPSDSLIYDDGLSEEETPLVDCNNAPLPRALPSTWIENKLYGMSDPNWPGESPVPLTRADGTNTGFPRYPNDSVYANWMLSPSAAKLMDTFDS
The method, then:
as §1, §2, §3, §4

Each structure is given as a SMILES string.

T3 sequence (P22455 22-802): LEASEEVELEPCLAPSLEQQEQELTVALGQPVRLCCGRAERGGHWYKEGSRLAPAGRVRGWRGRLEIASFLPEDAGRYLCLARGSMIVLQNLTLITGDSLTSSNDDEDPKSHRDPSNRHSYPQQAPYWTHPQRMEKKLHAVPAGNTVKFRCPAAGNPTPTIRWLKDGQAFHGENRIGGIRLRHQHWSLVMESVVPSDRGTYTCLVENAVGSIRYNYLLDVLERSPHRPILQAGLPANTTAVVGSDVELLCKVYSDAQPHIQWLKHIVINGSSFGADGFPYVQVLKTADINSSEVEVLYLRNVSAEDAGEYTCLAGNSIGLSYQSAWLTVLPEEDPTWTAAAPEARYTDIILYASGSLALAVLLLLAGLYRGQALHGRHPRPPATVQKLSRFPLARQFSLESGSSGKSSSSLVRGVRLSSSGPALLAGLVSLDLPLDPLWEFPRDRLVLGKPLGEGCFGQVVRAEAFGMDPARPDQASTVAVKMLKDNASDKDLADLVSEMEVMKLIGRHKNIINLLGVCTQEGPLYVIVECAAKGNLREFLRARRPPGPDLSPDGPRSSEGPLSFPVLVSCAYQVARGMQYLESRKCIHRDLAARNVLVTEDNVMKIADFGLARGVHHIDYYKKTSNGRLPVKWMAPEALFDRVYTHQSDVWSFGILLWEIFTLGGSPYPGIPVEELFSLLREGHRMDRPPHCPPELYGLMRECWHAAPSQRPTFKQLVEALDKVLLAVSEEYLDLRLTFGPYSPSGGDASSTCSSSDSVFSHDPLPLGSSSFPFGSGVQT

Turning to `Cc1nccn2c(Nc3cccc(Cl)c3)c(-c3ccccc3)nc12` [compound 3, (3-Chloro-phenyl)-(8-methyl-2-phenyl-imidazo[1,2-a]pyrazin-3-yl)-amine], the EphB2 growth restoration entry at EphB2 is reported as “++”. For the same compound, the FGFR-1 growth restoration entry on FGFR-1 is listed as “−”. Moreover, the FGFR-4 growth restoration entry on FGFR-4 is “−”. The InsR growth restoration entry at InsR is reported as “−”. In addition, the KIT growth restoration entry on KIT is on record as “−”. In addition, the RET growth restoration entry on RET is on record as “−”.
For `COc1cccc(-c2nc3cnccn3c2Nc2cccc(Cl)c2)c1` [compound 7, (3-Chloro-phenyl)-[2-(3-methoxy-phenyl)-imidazo[1,2-a]pyrazin-3-yl]-amine], the EphB2 growth restoration entry on EphB2 is “−”. Moreover, on FGFR-1, the FGFR-1 growth restoration result is reported as “−”. The FGFR-4 growth restoration result at FGFR-4 is “−”. Besides, the InsR growth restoration result at InsR is “−”. For the same compound, the KIT growth restoration result on KIT is given as “−”. Besides, the RET growth restoration result on RET is listed as “+ −”.
On to `Brc1cccc(Nc2c(-c3ccccc3)nc3cnccn23)c1` [compound 14, (3-Bromo-phenyl)-(2-phenyl-imidazo[1,2-a]pyrazin-3-yl)-amine], for which, on EphB2, the EphB2 growth restoration entry is on record as “−”. Moreover, the FGFR-1 growth restoration entry at FGFR-1 is “−”. Also, the FGFR-4 growth restoration result at FGFR-4 is on record as “−”. The InsR growth restoration result on InsR is reported as “−”. The KIT growth restoration result on KIT is listed as “−”. Moreover, the RET growth restoration result at RET is reported as “−”.
As for `Clc1ccc(Nc2c(-c3ccccc3)nc3cnccn23)cc1` [compound 16, (4-Chloro-phenyl)-(2-phenyl-imidazo[1,2-a]pyrazin-3-yl)-amine], the EphB2 growth restoration entry on EphB2 is “−”. The FGFR-1 growth restoration entry at FGFR-1 is recorded as “−”. The FGFR-4 growth restoration result on FGFR-4 is given as “−”. For the same compound, the InsR growth restoration entry at InsR was “−”. At KIT, the KIT growth restoration entry was “−”. Besides, the RET growth restoration result at RET was “+”.
For `CNc1nccn2c(Nc3cccc(Cl)c3)c(-c3ccccc3)nc12` [compound 20, N′3-(3-Chloro-phenyl)-N′8-methyl-2-phenyl-imidazo[1,2-a]pyrazine-3,8-diamine], at EphB2, the EphB2 growth restoration result is “−”. For the same compound, the InsR growth restoration result on InsR is given as “−”. For the same compound, on RET, the RET growth restoration entry is recorded as “−”.
With `c1ccc(Nc2c(-c3ccccc3)nc3cnccn23)cc1` [compound 23, Phenyl-(2-phenyl-imidazo[1,2-a]pyrazin-3-yl)-amine], the EphB2 growth restoration entry on EphB2 was “++”. Moreover, the FGFR-1 growth restoration result on FGFR-1 was “−”. The FGFR-4 growth restoration result on FGFR-4 is on record as “−”. Moreover, at InsR, the InsR growth restoration result is given as “−”. Besides, on KIT, the KIT growth restoration entry is reported as “−”. Further, the RET growth restoration entry at RET is given as “+”.
Consider `Cc1cccc(Nc2c(-c3ccccc3)nc3cnccn23)c1` [compound 34, (2-Phenyl-imidazo[1,2-a]pyrazin-3-yl)-m-tolyl-amine], for which the EphB2 growth restoration entry at EphB2 is “−”. Moreover, the FGFR-1 growth restoration entry on FGFR-1 was “−”. Moreover, the FGFR-4 growth restoration result on FGFR-4 is recorded as “−”. For the same compound, the InsR growth restoration result at InsR is given as “−”. The KIT growth restoration entry at KIT is “−”. Moreover, the RET growth restoration result at RET is “−”.
With `Clc1cccc(Nc2c(-c3ccccc3)nc3cnccn23)c1` [compound 35, (3-Chloro-phenyl)-(2-phenyl-imidazo[1,2-a]pyrazin-3-yl)-amine], the EphB2 growth restoration entry on EphB2 was “−”. Besides, the FGFR-1 growth restoration entry on FGFR-1 is reported as “−”. The FGFR-4 growth restoration result at FGFR-4 is “−”. In addition, the InsR growth restoration entry at InsR is on record as “−”. The KIT growth restoration result on KIT is “−”. In addition, the RET growth restoration result at RET is on record as “+”.
For the compound `Cc1nccn2c(Nc3ccccc3)c(-c3ccccc3)nc12` [compound 39, (8-Methyl-2-phenyl-imidazo[1,2-a]pyrazin-3-yl)-phenyl-amine], the EphB2 growth restoration entry on EphB2 is reported as “+++”. In addition, the FGFR-1 growth restoration entry on FGFR-1 is on record as “−”. Besides, the FGFR-4 growth restoration entry at FGFR-4 is listed as “−”. For the same compound, on InsR, the InsR growth restoration result is given as “−”. For the same compound, the KIT growth restoration result on KIT is “−”. At RET, the RET growth restoration result was “+”.
For `Cc1cccc(Nc2c(-c3ccccc3)nc3c(C)nccn23)c1` [compound 43, (8-Methyl-2-phenyl-imidazo[1,2-a]pyrazin-3-yl)-m-tolyl-amine], at EphB2, the EphB2 growth restoration entry is on record as “++”. Also, the FGFR-1 growth restoration result at FGFR-1 is “−”. The FGFR-4 growth restoration entry at FGFR-4 is given as “−”. Further, the InsR growth restoration entry on InsR is listed as “−”. The KIT growth restoration entry on KIT is given as “−”. For the same compound, the RET growth restoration entry on RET is “−”.
As for `Cc1nccn2c(Nc3cccc(F)c3)c(-c3ccccc3)nc12` [compound 44, (3-Fluoro-phenyl)-(8-methyl-2-phenyl-imidazo[1,2-a]pyrazin-3-yl)-amine], the EphB2 growth restoration entry at EphB2 is given as “+++”. In addition, the FGFR-1 growth restoration result at FGFR-1 is “−”. Further, the FGFR-4 growth restoration entry at FGFR-4 is listed as “−”. For the same compound, the InsR growth restoration entry at InsR was “−”. Besides, the KIT growth restoration entry on KIT is reported as “−”. Further, the RET growth restoration result on RET is given as “−”.
Turning to `Cc1nccn2c(Nc3ccc(F)c(F)c3)c(-c3ccccc3)nc12` [compound 45, (3,4-Difluoro-phenyl)-(8-methyl-2-phenyl-imidazo[1,2-a]pyrazin-3-yl)-amine], on EphB2, the EphB2 growth restoration result is given as “++”. For the same compound, on FGFR-1, the FGFR-1 growth restoration entry is recorded as “−”. Besides, at FGFR-4, the FGFR-4 growth restoration entry is given as “−”. Further, on InsR, the InsR growth restoration result is recorded as “−”. Further, at KIT, the KIT growth restoration entry was “−”. Moreover, on RET, the RET growth restoration entry was “−”.
